# Results from patent publication US20230203060A1 (GENFLEET THERAPEUTICS (SHANGHAI) INC., priority 2020, published 2023).
# Columns and labels:
# [1] = test system: KRAS G12C mutant MIA PaCa-2 cells; assay: Cell proliferation inhibition experiment, 3D spheroid, CellTiter-Glo, MIA PaCa-2; format: cell-based, human; conditions: Homo sapiens, MIA PaCa-2, 120 h, 3D cell model in 384-well spheroid plate, 5 days, CellTiter-Glo; read-out: MIA-PaCa2 IC50
# How it was run: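 Luminescent ATP read-out (CellTiter-Glo) after 5-day compound treatment of spheroids formed overnight from 200 MIA PaCa-2 cells/well; compounds in 3.16-fold series, 0.1% DMSO final. IC50 derived by four-parameter fit of percent inhibition, normalized to DMSO control and medium blank.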
# [2] = test system: A549 cells (KRAS G12S mutant); assay: Cell proliferation inhibition experiment, 3D spheroid, CellTiter-Glo, A549; format: cell-based, human; conditions: Homo sapiens, A549, 120 h, A549 (KRAS G12S mutant) 3D spheroid, 5 days with compound, CellTiter-Glo; read-out: A549 IC50
# How it was run: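 First, H358 (800/well) or A549 (400/well) cells are plated in 2% FBS medium and left overnight to form spheroids. Next, compound is added as a 3.16-fold gradient at 0.1% DMSO for 5 days. Finally, CellTiter-Glo signal is read and IC50 derived by four-parameter fitting.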
SMILES,IC50 [1] [nM],IC50 [2] [µM]
"C=CC(=O)N1CCN2C(=O)c3c(N4CC[C@@H]5C[C@@H]54)nc(-c4c(O)cccc4F)c(Cl)c3OC[C@H]2C1 (single isomer, unassigned) [Z39-2]",13,–
"C=CC(=O)N1CCN2C(=O)c3c(N4C[C@@H](CO)CC4(C)C)nc(-c4c(O)cccc4F)c(Cl)c3OC[C@H]2C1 (single isomer, unassigned) [Z240-1]",3.7,10.1
"C=CC(=O)N1CCN2C(=O)c3c(N4C[C@H](O)CC4(C)C)nc(-c4c(O)ccc(Cl)c4F)c(F)c3OC[C@H]2C1 (single isomer, unassigned) [Z340-2]",74,3.17
"C=CC(=O)N1CCN2C(=O)c3c(N4CCN(C)C[C@@H]4C)nc(-c4nc(N)cc(C)c4C(F)(F)F)c(Cl)c3OC[C@H]2C1 [Z328-1, (R)-8-acryloyl-3-(6-amino-4-methyl-3-(trifluoromethyl)pyridin-2-yl)-4-chloro-1-((S)-2,4-dimethylpiperazin-1-yl)-6,6a,7,8,9,10-hexahydro-12H-pyrazino[2,1-c]pyrido[3,4-f][1,4]oxazepin-12-one]",1.7,16.1
"C=CC(=O)N1CCN2C(=O)c3c(N4C[C@@H](N(C)C)CC4(C)C)nc(-c4c(O)cccc4F)c(Cl)c3OC[C@H]2C1 (single isomer, unassigned) [Z324-1]",2.4,2.85
"C=CC(=O)N1CCN2C(=O)c3c(N4CCN(C5COC5)C[C@@H]4C)nc(-c4c(O)cccc4F)c(Cl)c3OC[C@H]2C1 (single isomer, unassigned) [Z239-1]",20,–
C=CC(=O)N1CCN2C(=O)c3c(N4CCC[C@@]4(C)CO)nc(-c4c(O)cccc4F)c(Cl)c3OC[C@H]2C1 [Z279-2],4.9,> 30
"C=CC(=O)N1CCN2C(=O)c3c(N4CC(C)(C)OC[C@@H]4C)nc(-c4c(O)cccc4F)c(Cl)c3OC[C@H]2C1 [Z276-1, (6aR)-8-acryloyl-4-chloro-3-(2-fluoro-6-hydroxyphenyl)-1-((S)-2,2,5-trimethylmorpholino)-6,6a,7,8,9,10-hexahydro-12H-pyrazino[2,1-c]pyrido[3,4-f][1,4]oxazepin-12-one]",14.9,> 30
"C=CC(=O)N1CCN2C(=O)c3c(N4C[C@@](C)(O)CC4(C)C)nc(-c4c(O)cccc4F)c(F)c3OC[C@H]2C1 (single isomer, unassigned) [Z256b-1]",6.2,10.2
"C=CC(=O)N1CCN2C(=O)c3c(N4C[C@](C)(O)CC4(C)C)nc(-c4c(O)cccc4F)c(Cl)c3OC[C@H]2C1 (single isomer, unassigned) [Z243-2]",22.2,3.44
C=CC(=O)N1CCN2C(=O)c3c(N4Cc5cn(C)nc5C4C)nc(-c4c(O)cccc4F)c(Cl)c3OC[C@H]2C1 (stereo partly shown) [Z291-2],7,9.69
"C=CC(=O)N1CCN2C(=O)c3c(N4CC[C@@H](OC)C4(C)C)nc(-c4c(O)cccc4F)c(F)c3OC[C@H]2C1 (single isomer, unassigned) [Z327-1]",7.1,7.93
"C=CC(=O)N1CCN2C(=O)c3c(N4CCO[C@](C)(COC)C4)nc(-c4c(O)cccc4F)c(Cl)c3OC[C@H]2C1 (single isomer, unassigned) [Z332-1]",17,–
"C=CC(=O)N1CCN2C(=O)c3c(N4CC(=O)N(CC)C[C@@H]4C)nc(-c4c(O)cccc4F)c(Cl)c3OC[C@H]2C1 [Z319-1, (6aR)-8-acryloyl-4-chloro-1-((S)-4-ethyl-2-methyl-5-oxopiperazin-1-yl)-3-(2-fluoro-6-hydroxyphenyl)-6,6a,7,8,9,10-hexahydro-12H-pyrazino[2,1-c]pyrido[3,4-f][1,4]oxazepin-12-one]",–,> 30

# The remaining lines, values ahead:
IC50 [1] [nM],IC50 [2] [µM],SMILES
4.9,–,"C=CC(=O)N1CCN2C(=O)c3c(N4CCC(O)C4(C)C)nc(-c4c(O)cccc4F)c(Cl)c3OC[C@H]2C1 (stereo partly drawn) [Z241, (6aR)-8-acryloyl-1-(3-hydroxy-2,2-dimethylpyrrolidin-1-yl)-4-chloro-3-(2-fluoro-6-hydroxyphenyl)-6,6a,7,8,9,10-hexahydro-12H-pyrazino[2,1-c]pyrido[3,4-f][1,4]oxazepin-12-one]"
9.9,> 30,C=CC(=O)N1CCN2C(=O)c3c(N4CCOCC4)nc(-c4nc(N)cc(C)c4C(F)(F)F)c(Cl)c3OC[C@H]2C1 [Z314]
8,9.02,"C=CC(=O)N1CCN2C(=O)c3c(N(C)c4c(C(C)C)ncnc4C(C)C)nc(-c4c(O)cccc4F)c(Cl)c3OC[C@H]2C1 [Z20, (6aR)-8-acryloyl-4-chloro-1-((4,6-diisopropylpyrimidin-5-yl)(methyl)amino)-3-(2-fluoro-6-hydroxyphenyl)-6,6a,7,8,9,10-hexahydro-12H-pyrazino[2,1-c]pyrido[3,4-f][1,4]oxazepin-12-one]"
29,28.3,"C=CC(=O)N1CCN2C(=O)c3c(N4CCN(C)C[C@@H]4C)nc(-c4c(F)ccc(F)c4O)c(Cl)c3OC[C@H]2C1 [Z356, (6aR)-8-acryloyl-4-chloro-3-(3,6-difluoro-2-hydroxyphenyl)-1-((S)-2,4-dimethylpiperazin-1-yl)-6,6a,7,8,9,10-hexahydro-12H-pyrazino[2,1-c]pyrido[3,4-f][1,4]oxazepin-12-one]"
11,8.55,"C=CC(=O)N1CCN2C(=O)c3c(N4CCC(N(C)C)C4(C)C)nc(-c4c(O)cccc4F)c(Cl)c3OC[C@H]2C1 (stereo partly drawn) [Z334, (6aR)-8-acryloyl-4-chloro-1-(3-(dimethylamino)-2,2-dimethylpyrrolidin-1-yl)-3-(2-fluoro-6-hydroxyphenyl)-6,6a,7,8,9,10-hexahydro-12H-pyrazino[2,1-c]pyrido[3,4-f][1,4]oxazepin-12-one]"
26,–,"C=CC(=O)N1CCN2C(=O)c3c(N4Cc5cn(C)nc5C4(C)C)nc(-c4c(O)cccc4F)c(Cl)c3OC[C@H]2C1 [Z310, (6aR)-8-acryloyl-1-(2,6,6-trimethylpyrrolo[3,4-c]pyrazol-5(2H,4H,6H)-yl)-4-chloro-3-(2-fluoro-6-hydroxyphenyl)-6,6a,7,8,9,10-hexahydro-12H-pyrazino[2,1-c]pyrido[3,4-f][1,4]oxazepin-12-one]"
4.2,–,"C=CC(=O)N1CCN2C(=O)c3c(N4CC(C)(O)CC4(C)C)nc(-c4c(O)cccc4F)c(Cl)c3OC[C@H]2C1 (stereo partly drawn) [Z243, (6aR)-8-acryloyl-4-chloro-3-(2-fluoro-6-hydroxyphenyl)-1-(4-hydroxy-2,2,4-trimethylpyrrolidin-1-yl)-6,6a,7,8,9,10-hexahydro-12H-pyrazino[2,1-c]pyrido[3,4-f][1,4]oxazepin-12-one]"
7,–,"C=CC(=O)N1CCN2C(=O)c3c(N4CC(OC)CC4(C)C)nc(-c4c(O)cccc4F)c(Cl)c3OC[C@H]2C1 (stereo partly drawn) [Z244, (6aR)-8-acryloyl-4-chloro-3-(2-fluoro-6-hydroxyphenyl)-1-(4-methoxy-2,2-dimethylpyrrolidin-1-yl)-12-oxo-6,6a,7,8,9,10-hexahydro-12H-pyrazino[2,1-c]pyrido[3,4-f][1,4]oxazepin-12-one]"
7,–,"C=CC(=O)N1CCN2C(=O)c3c(N4CCN(CCOC)C(C)(C)C4)nc(-c4c(O)cccc4F)c(Cl)c3OC[C@H]2C1 [Z321, (6aR)-8-acryloyl-4-chloro-3-(2-fluoro-6-hydroxyphenyl)-1-(4-(2-methoxyethyl)-3,3-dimethylpiperazin-1-yl)-6,6a,7,8,9,10-hexahydro-12H-pyrazino[2,1-c]pyrido[3,4-f][1,4]oxazepin-12-one]"
